Assay results as given in ChEMBL document CHEMBL6103581, “Identification of Thieno[3,2-d]pyrimidine derivatives as potent and selective Janus Kinase 1 inhibitors” (Eur J Med Chem, 2025).
Active and inactive are the calls of the source. No cut-off for these calls is given here.

Experiments:
BaF3 = test: Antiproliferative activity against mouse parental BaF3 cells assessed as cell growth inhibition incubated for 72 hrs by Cell-TiterGlo assay; format: functional
[1] = Antiproliferative activity against mouse Ba/F3-TEL-JAK1 cells assessed as cell growth inhibition incubated for 72 hrs by Cell-TiterGlo assay; format: functional
NCI-H1975 [2] = test: Antiproliferative activity against human NCI-H1975 cells assessed as cell growth inhibition incubated for 72 hrs by Cell-TiterGlo assay; format: functional
NCI-H2087 [3] = test: Antiproliferative activity against human NCI-H2087 cells assessed as cell growth inhibition incubated for 72 hrs by Cell-TiterGlo assay; format: functional
[4] = molecular target: Tyrosine-protein kinase JAK2 (Homo sapiens, UniProt O60674); test: Inhibition of N-terminal GST-tagged human recombinant JAK2 (804 to end residues) extracted from baculovirus infected in Sf9 cells using IGF1Rtide as substrate preincubated for 15 min followed by substrate addition and measured after 1 hr by ADP-Glo kinase assay
Sequence of Tyrosine-protein kinase JAK2 (O60674 whole entry): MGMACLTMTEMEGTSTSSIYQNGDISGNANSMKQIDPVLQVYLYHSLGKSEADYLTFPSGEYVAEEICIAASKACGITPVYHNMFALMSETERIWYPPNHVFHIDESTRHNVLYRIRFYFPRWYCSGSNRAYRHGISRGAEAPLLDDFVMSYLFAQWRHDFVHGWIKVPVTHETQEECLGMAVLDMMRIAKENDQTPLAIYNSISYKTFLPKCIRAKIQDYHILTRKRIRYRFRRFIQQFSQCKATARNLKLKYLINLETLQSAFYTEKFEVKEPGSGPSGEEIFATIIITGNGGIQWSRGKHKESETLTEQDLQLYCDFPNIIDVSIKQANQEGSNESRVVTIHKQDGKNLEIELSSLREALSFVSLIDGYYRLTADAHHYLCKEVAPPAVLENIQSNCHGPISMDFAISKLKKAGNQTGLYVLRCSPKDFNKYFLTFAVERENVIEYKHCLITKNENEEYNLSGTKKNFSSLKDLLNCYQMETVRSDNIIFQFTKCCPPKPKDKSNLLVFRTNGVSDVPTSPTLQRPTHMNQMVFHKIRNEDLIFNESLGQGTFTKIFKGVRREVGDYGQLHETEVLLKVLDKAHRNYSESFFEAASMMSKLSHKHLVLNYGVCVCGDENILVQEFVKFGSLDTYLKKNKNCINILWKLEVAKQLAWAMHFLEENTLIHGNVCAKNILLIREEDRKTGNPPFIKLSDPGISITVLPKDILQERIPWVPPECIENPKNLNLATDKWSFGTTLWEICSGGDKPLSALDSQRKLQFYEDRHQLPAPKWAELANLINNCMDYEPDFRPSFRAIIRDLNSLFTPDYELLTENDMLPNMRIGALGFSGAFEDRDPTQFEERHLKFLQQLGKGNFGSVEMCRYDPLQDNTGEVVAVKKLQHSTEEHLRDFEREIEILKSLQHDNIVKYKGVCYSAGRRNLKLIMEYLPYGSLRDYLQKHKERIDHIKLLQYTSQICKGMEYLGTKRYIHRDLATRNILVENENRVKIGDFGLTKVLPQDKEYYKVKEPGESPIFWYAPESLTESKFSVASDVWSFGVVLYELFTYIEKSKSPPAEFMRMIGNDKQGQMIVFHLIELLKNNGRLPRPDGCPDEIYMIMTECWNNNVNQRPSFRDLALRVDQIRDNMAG

[5] = molecular target: T1, Tyrosine-protein kinase JAK3 (Homo sapiens, UniProt P52333); test: Inhibition of N-terminal GST-tagged human recombinant JAK3 (781 to end residues) extracted from baculovirus infected in Sf9 cells using Poly(4:1 Glu, Tyr) as substrate preincubated for 15 min followed by substrate addition and measured after 1 hr by ADP-Glo kinase assay
T1 sequence (P52333 whole entry): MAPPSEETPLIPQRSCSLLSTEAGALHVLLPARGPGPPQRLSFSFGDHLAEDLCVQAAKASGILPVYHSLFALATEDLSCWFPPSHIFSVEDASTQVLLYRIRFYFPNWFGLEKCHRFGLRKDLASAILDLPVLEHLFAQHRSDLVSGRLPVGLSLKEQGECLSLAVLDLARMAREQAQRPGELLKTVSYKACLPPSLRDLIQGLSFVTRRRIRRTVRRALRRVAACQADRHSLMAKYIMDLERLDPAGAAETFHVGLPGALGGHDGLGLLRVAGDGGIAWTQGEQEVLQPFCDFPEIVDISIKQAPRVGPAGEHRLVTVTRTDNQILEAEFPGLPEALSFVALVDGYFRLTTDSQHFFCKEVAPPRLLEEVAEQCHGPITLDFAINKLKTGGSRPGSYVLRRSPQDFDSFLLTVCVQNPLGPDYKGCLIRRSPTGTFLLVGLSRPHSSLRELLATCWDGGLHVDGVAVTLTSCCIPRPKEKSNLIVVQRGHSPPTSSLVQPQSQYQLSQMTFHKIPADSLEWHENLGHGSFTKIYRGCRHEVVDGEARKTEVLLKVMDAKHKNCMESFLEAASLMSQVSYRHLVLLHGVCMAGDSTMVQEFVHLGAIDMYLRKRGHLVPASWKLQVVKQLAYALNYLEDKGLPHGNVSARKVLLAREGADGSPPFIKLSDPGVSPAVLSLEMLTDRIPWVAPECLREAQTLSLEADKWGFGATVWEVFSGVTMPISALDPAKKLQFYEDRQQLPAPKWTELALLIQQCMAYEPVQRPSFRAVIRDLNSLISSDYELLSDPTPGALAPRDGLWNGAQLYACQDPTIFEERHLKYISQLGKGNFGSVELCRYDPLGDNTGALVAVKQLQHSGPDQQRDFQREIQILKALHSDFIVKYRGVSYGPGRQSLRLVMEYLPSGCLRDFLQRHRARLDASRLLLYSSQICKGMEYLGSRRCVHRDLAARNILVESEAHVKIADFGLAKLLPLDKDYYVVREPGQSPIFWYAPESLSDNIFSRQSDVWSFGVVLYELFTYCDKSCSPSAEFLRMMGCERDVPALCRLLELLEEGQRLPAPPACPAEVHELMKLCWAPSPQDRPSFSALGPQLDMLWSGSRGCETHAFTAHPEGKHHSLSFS

[6] = molecular target: Signal transducer and activator of transcription 3 (Homo sapiens) (UniProt P40763); test: Inhibition of STAT3 phosphorylation in human NCI-H1975 cells incubated for 1 hr by Western blot analysis; format: cell-based; conditions: dose 1-10 µM
Sequence of Signal transducer and activator of transcription 3 (Homo sapiens) (P40763 whole entry): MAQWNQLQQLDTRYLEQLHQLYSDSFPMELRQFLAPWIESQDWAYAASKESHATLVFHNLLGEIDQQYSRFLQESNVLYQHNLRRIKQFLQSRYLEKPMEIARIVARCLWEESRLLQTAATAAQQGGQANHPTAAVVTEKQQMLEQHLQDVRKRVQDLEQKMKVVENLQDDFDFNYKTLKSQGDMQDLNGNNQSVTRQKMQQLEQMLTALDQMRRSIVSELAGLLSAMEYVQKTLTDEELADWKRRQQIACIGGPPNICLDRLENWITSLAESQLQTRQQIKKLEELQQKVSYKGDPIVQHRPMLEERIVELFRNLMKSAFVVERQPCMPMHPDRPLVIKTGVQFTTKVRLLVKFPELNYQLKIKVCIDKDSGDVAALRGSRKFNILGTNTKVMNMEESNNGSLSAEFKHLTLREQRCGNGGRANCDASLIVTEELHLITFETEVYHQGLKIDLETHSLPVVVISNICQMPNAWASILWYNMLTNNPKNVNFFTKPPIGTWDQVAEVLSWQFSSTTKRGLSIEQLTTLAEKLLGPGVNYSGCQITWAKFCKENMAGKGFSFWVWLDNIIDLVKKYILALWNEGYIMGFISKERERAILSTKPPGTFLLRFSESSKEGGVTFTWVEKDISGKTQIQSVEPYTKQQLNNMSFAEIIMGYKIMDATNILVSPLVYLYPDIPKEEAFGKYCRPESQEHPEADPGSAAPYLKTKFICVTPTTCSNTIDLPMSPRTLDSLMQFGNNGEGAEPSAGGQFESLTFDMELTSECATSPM

[7] = molecular target: Signal transducer and activator of transcription 3 (Homo sapiens) (UniProt P40763); test: Inhibition of STAT3 phosphorylation in human NCI-H2087 cells incubated for 1 hr by Western blot analysis; format: cell-based; conditions: dose 1-10 µM
NCI-H1975 [8] = test: Induction of cell cycle arrest in human NCI-H1975 cells assessed as accumulation of cells at G2/M phase at 1 to 10 uM incubated for 24 hrs by propidium iodide/RNase staining based analysis; format: functional; conditions: dose 1-10 µM
NCI-H2087 [9] = test: Induction of cell cycle arrest in human NCI-H2087 cells assessed as accumulation of cells at G2/M phase at 1 to 10 uM incubated for 24 hrs by propidium iodide/RNase staining based analysis; format: functional; conditions: dose 1-10 µM
NCI-H1975 [10] = test: Induction of apoptosis in human NCI-H1975 cells at 1 to 10 uM incubated for 24 hrs by Annexin V/Propidium iodide staining based analysis; format: functional, cell-based; conditions: dose 1-10 µM
NCI-H2087 [11] = test: Induction of apoptosis in human NCI-H2087 cells at 1 to 10 uM incubated for 24 hrs by Annexin V/Propidium iodide staining based analysis; format: functional, cell-based; conditions: dose 1-10 µM
NCI-H1975 [12] = test: Synergistic antiproliferative activity against human NCI-H1975 cells assessed as cell growth inhibition measured after 48 hrs in presence of osimertinib by celltiterglo analysis; format: functional, cell-based
NCI-H1975 [13] = test: Inhibition of colony formation in human NCI-H1975 cells at 10 uM incubated for 14 days by crystal violet staining based 2D colony formation assay relative to control; format: functional; conditions: NCI-H1975, 336 h, time 14 day
NCI-H2087 [14] = test: Inhibition of colony formation in human NCI-H2087 cells at 10 uM incubated for 14 days by crystal violet staining based 2D colony formation assay relative to control; format: functional; conditions: NCI-H2087, 336 h, time 14 day

`COc1nn(C)cc1Nc1ncc2scc(-c3cccc(NC(=O)[C@@H](C)N4CCN(CCO)CC4)c3)c2n1` showed a GI50 (BaF3) of 0.614 µM, a GI50 [1] of 0.193 µM and a GI50 (NCI-H1975 [2]) of 6.67 µM. The GI50 (NCI-H2087 [3]) was 5.96 µM, the IC50 [4] was 0.759 µM and the IC50 [5] was 1.6 µM. For the same compound, the inhibition [6] was “Dose-dependent-effect”, the inhibition [7] was “Dose-dependent-effect” and the Activity (NCI-H1975 [8]) was “Active”. For the same compound, the Activity (NCI-H2087 [9]) was “Active”, the Activity (NCI-H1975 [10]) was “Active” and the Activity (NCI-H2087 [11]) was “Active”. For the same compound, the Activity (NCI-H1975 [12]) was “Active”, the inhibition at 10 µM (NCI-H1975 [13]) was 100% and the inhibition at 10 µM (NCI-H2087 [14]) was 100%.

In the case of `COc1nn(C)cc1Nc1ncc2scc(-c3cccc(NC(=O)[C@H]4CCCN4)c3)c2n1`, the GI50 (BaF3) is reported as 3.31 µM, the GI50 [1] is reported as 0.744 µM and the GI50 (NCI-H1975 [2]) is reported as 5.26 µM. For the same compound, the GI50 (NCI-H2087 [3]) was 1.51 µM, the IC50 [4] was 1.6 µM and the IC50 [5] was 0.069 µM.

Compound `COc1nn(C)cc1Nc1ncc2scc(-c3cccc(NC(=O)[C@@H](C)N4CCN(S(C)(=O)=O)CC4)c3)c2n1` has a GI50 (BaF3) of 3.77 µM, a GI50 [1] of 2.45 µM and a GI50 (NCI-H1975 [2]) of 20.2 µM. It also gave a GI50 (NCI-H2087 [3]) of 22.2 µM.

`COc1nn(C)cc1Nc1ncc2scc(-c3cccc(NC(=O)[C@@H](C)N4CCNCC4)c3)c2n1` gave a GI50 (BaF3) of 0.507 µM, a GI50 [1] of 0.188 µM and a GI50 (NCI-H1975 [2]) of 4.26 µM. The GI50 (NCI-H2087 [3]) was 1.66 µM.

`COc1ncccc1Nc1ncc2scc(-c3cccc(NC(=O)[C@@H](C)N4CCN(C)CC4)c3)c2n1` gave a GI50 (BaF3) of 2.59 µM, a GI50 [1] of 1.77 µM and a GI50 (NCI-H1975 [2]) of 10.5 µM. The GI50 (NCI-H2087 [3]) was 3.27 µM.

With `COc1nn(C)cc1Nc1ncc2scc(-c3cccc(NS(C)(=O)=O)c3)c2n1` the GI50 (BaF3) was 0.781 µM, the GI50 [1] was 0.659 µM and the GI50 (NCI-H1975 [2]) was 4.53 µM. The GI50 (NCI-H2087 [3]) was 8.22 µM.

Work on `C[C@H](C(=O)Nc1cccc(-c2csc3cnc(Nc4cccnc4O)nc23)c1)N1CCN(C)CC1` yielded a GI50 (BaF3) of 6.16 µM, a GI50 [1] of 7.31 µM and a GI50 (NCI-H1975 [2]) of 18.5 µM. The GI50 (NCI-H2087 [3]) was 13.5 µM.

For `Cc1ccnc(C)c1Nc1ncc2scc(-c3cccc(NC(=O)[C@@H](C)N4CCN(C)CC4)c3)c2n1`, the GI50 (BaF3) was 17.3 µM, the GI50 [1] was 16.2 µM and the GI50 (NCI-H1975 [2]) was 28.9 µM. It also gave a GI50 (NCI-H2087 [3]) of 7.82 µM.
